Data published in the supplement of paper PMC10307832.

What was measured:
Assay in all cases: relative viability (nuclei count vs DMSO), 5 days (fraction); higher = more cells survive
Sunitinib + Navitoclax = compound: CCN(CC)CCNC(=O)c1c(C)[nH]c(/C=C2\C(=O)Nc3ccc(F)cc32)c1C [Sunitinib] + CC1(C)CCC(c2ccc(Cl)cc2)=C(CN2CCN(c3ccc(C(=O)NS(=O)(=O)c4ccc(N[C@H](CCN5CCOCC5)CSc5ccccc5)c(S(=O)(=O)C(F)(F)F)c4)cc3)CC2)C1 [Navitoclax] (partner 0.5 µM)
Outline: (§1)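 Lung cancer cell lines, seeded in 1536-well plates, were treated the following day by pin tool with a single drug or with five library-drug doses (not always all listed) in √10 steps on top of a fixed anchor-drug dose. Cells were fixed and nuclei stained in one step after 5 days, and nuclei were counted. Relative viability is the nuclei count for treated wells divided by that for vehicle wells, reported as medians of duplicate plates.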

Sunitinib + Crizotinib = compound: CCN(CC)CCNC(=O)c1c(C)[nH]c(/C=C2\C(=O)Nc3ccc(F)cc32)c1C [Sunitinib] + C[C@@H](Oc1cc(-c2cnn(C3CCNCC3)c2)cnc1N)c1c(Cl)ccc(F)c1Cl [Crizotinib] (partner 1 µM)
Outline: as §1

Sunitinib + Phenformin = compound: CCN(CC)CCNC(=O)c1c(C)[nH]c(/C=C2\C(=O)Nc3ccc(F)cc32)c1C [Sunitinib] + N=C(N)NC(=N)NCCc1ccccc1 [Phenformin] (partner 250 µM)
Outline: as §1

Sunitinib + Decitabine = compound: CCN(CC)CCNC(=O)c1c(C)[nH]c(/C=C2\C(=O)Nc3ccc(F)cc32)c1C [Sunitinib] + Nc1ncn([C@H]2C[C@H](O)[C@@H](CO)O2)c(=O)n1 [Decitabine] (partner 2 µM)
Outline: as §1

Cell Line	relative viability (Sunitinib + Navitoclax; first compound 0.02 µM)	relative viability (Sunitinib + Navitoclax; first compound 0.06325 µM)	relative viability (Sunitinib + Navitoclax; first compound 0.2 µM)	relative viability (Sunitinib + Navitoclax; first compound 0.6325 µM)	relative viability (Sunitinib + Navitoclax; first compound 2 µM)	relative viability (Sunitinib + Crizotinib; first compound 0.02 µM)	relative viability (Sunitinib + Crizotinib; first compound 0.06325 µM)	relative viability (Sunitinib + Crizotinib; first compound 0.2 µM)	relative viability (Sunitinib + Crizotinib; first compound 0.6325 µM)	relative viability (Sunitinib + Crizotinib; first compound 2 µM)	relative viability (Sunitinib + Phenformin; first compound 0.02 µM)	relative viability (Sunitinib + Phenformin; first compound 0.06325 µM)	relative viability (Sunitinib + Phenformin; first compound 0.2 µM)	relative viability (Sunitinib + Phenformin; first compound 0.6325 µM)	relative viability (Sunitinib + Phenformin; first compound 2 µM)	relative viability (Sunitinib + Decitabine; first compound 0.02 µM)	relative viability (Sunitinib + Decitabine; first compound 0.06325 µM)	relative viability (Sunitinib + Decitabine; first compound 0.2 µM)	relative viability (Sunitinib + Decitabine; first compound 0.6325 µM)	relative viability (Sunitinib + Decitabine; first compound 2 µM)
NCI-H1734	0.785	0.815	0.954	0.846	0.906	0.645	0.738	0.866	0.746	0.724	0.345	0.46	0.474	0.392	0.358	0.528	0.495	0.514	0.477	0.497
NCI-H1755				1.04	0.993	0.753	0.874	0.89	0.904	0.857	0.574	0.672	0.675	0.692	0.642	0.69		0.663	0.692	0.76
NCI-H1792	0.664		0.777	0.537	0.66	0.821	1.03	1.22	0.979	1.01		0.381	0.351	0.418	0.31	0.457	0.594	0.625	0.527	0.591
NCI-H1915	0.764	0.765	0.833	0.815	0.805		0.911	0.998	0.911	0.966	0.348	0.396	0.43	0.367	0.368	0.266	0.278	0.264	0.26	0.271
NCI-H1944	1.03	1.04	1.1		1		1.06	1.34	1.24	1.18	0.183	0.206	0.214	0.203	0.199	0.477	0.415	0.466	0.42	0.449
NCI-H1975	1.07	1.15	1.11	1.12	1.12	0.885	0.96	1.05	0.954		0.399	0.442	0.425	0.427	0.393	0.369	0.408	0.405	0.427	0.391
NCI-H1993	0.923	1.01		0.872	0.905	0.846	0.741	0.872	0.966	0.74	0.541	0.501	0.545	0.479	0.53	0.514	0.632	0.605	0.577	0.61
NCI-H2009	1.18	1.19	1.26	1.16	1.26	1.01	1.03	1.16	1.13	1.04	0.446	0.501	0.461	0.465	0.429	0.349	0.364	0.371	0.424	0.373
NCI-H2023		1.05	1.11	1.06	0.975	0.628	0.67	0.792	0.654	0.667	0.391	0.446	0.519	0.459	0.385	0.242	0.225	0.247	0.243	0.217
NCI-H2085		1.19	1.23	1.18	1.28	0.844	0.817	1.03	0.85	0.798	0.686	0.916	0.788	0.877	0.754	0.527	0.55	0.554	0.595	0.579
NCI-H2087	0.976	0.99	1.14	1.01	0.969	0.909	1.09	1.15	0.967	0.791	0.456	0.398	0.545	0.507	0.42	0.273	0.274	0.315	0.245	0.264
NCI-H2126	0.833	0.865	0.904	0.871	0.798	1.01	1.04	1.07	1.01	1.01	0.509	0.534	0.537	0.561	0.517	0.589	0.572	0.532	0.592	0.579
NCI-H2170	0.607	0.681	0.572	0.651	0.445	1.11	1.12	1.34	1.14	1.17	0.474	0.398	0.436	0.408	0.367	0.452	0.465	0.484	0.422	0.412
NCI-H2347	0.888	0.825	0.836	0.817	0.818	0.665	0.795		0.731	0.822	0.486	0.484	0.567	0.384	0.404	0.562	0.617	0.642	0.66	
NCI-H2405	0.985	0.892	0.909	1.14	0.977	0.803	0.868	0.955	0.862	0.889	0.399	0.391	0.406	0.395	0.406	0.811	0.8	0.761	0.754	0.761
NCI-H3122	0.975	1.04	1.07	1.04	0.983	0.273	0.247	0.249	0.241	0.297	0.35	0.387	0.366	0.361	0.288	0.412	0.439	0.542	0.364	0.453
PC-3 [JPC-3]	0.843	0.906	0.846	0.879	0.797	1.03	0.943	1.01	1.02	0.984	0.478	0.484	0.471	0.502	0.468	0.89	0.788		0.79	0.764
